# Measured values published in patent US6916852B2, “Method for regulation of microvascular tone” (University of Tennessee Research Foundation, priority 2003, dated 2005).
# Read-outs that look alike come from different tables or passages of the source.
# Columns and labels:
# [1] = cited from earlier work; for changes in blood pressure or renal function (Dilger): therapeutic doses for 15 days, healthy young or elderly subjects
# cremaster arterioles = assay: Intravital microscopy of cremaster muscle arterioles; assay type: in vivo, C57-BL mice
# Protocol: Male C57-BL mice age 7-8 weeks and weighing approximately 20 grams are anesthetized with an intramuscular injection of 100 to 150 microliters of a mixture of ketamine and xylazine (87 mg ketamine and 13 mg xylazine per ml) based on the weight of the individual animal. The body temperature was maintained at about 37° C. by convective heating. The animal is supinated, a midline incision is made in the ventrocervical region, and the underlying tissues are bisected laterally to expose the trachea. A tracheotomy is performed and the animal is intubated directly with PE50 tubing to facilitate ventilation. The wound is then closed.
# The left rear limb is incised to expose the femoral neurovascular bundle and the femoral vein is isolated and catheterized with PE10 tubing attached to a syringe containing normal saline. The animal is then placed on a specially designed surgery board and the right testicle within the scrotum is oriented over a translumination observation window contained in the surgery board. The scrotum is irrigated with warmed (about 37° C.) physiological saline (4.3 mM NaHCO3, 126.4 mM NaCl, 0.9 mM KCl, 0.4 mM CaCl2, 0.2 mM MgSO4). The scrotum is incised medially and the underlying fascia is bluntly dissected to expose the testicle. The apical portion of the cremaster muscle is pinned distally on the surgery board and the cremaster muscle is incised along its long axis to expose the testicle. The testicle is then gently forced back into the inguinal canal, allowing the cremaster muscle to be pinned evenly around the translumination window.
# (§1) All experiments are carried out using an industrial grade microscope (Nikon MM-11) with two light sources, bright field (OptiQuip 75 W xenon) and fluorescent (Nikon 150 W mercury). The primary camera assembly has a chilled charged coupled device (CCD) and controller (Hamamastu C5985). The secondary camera assembly has a CCD camera (MTI CCD72) in conjunction with an intensifier (MTI […]). Experiments are viewed on a video monitor and recorded on a digital video recorder for off-line processing.
# The prepared animal, as described above in Examples 1 and 2, is placed on the stage of the microscope on the surgery board with the translumination window. Exposed tissues are irrigated with warmed physiological saline through which a N2/CO2 (95%/5%) mixture is bubbled. The tissue is allowed to equilibrate until normal blood flow is observed or perfusate flow stabilizes, during which time the tissue is scanned at 1-X for A1-A4 arterioles. The arterioles are then tested for physiological tone by the topical administration of 0.1 mM adenosine (positive control).
# (§2) After the arteriole returns to resting diameter (about 10 minutes) the tissue is treated topically with test chemical drugs or the drugs are administered systemically and the responses of the arterioles are viewed at 20× magnification. Topical treatment is by directly applying a vehicle solution (1:1:18 stepantex:ethanol:saline) or a drug plus vehicle solution. Systemic treatments in the whole animal are administered through the femoral vein catheter. The arteriole is video recorded during the entire procedure for off-line analysis. The blood pressure is monitored throughout the procedure utilizing a 1.4 F (0.56 mm) Millar catheter pressure transducer inserted into the left ventricle via the aorta. Systolic and diastolic blood pressure, and heart rate are recorded. Drug dosing regimens for the animals are based on literature values or values experimentally determined via drug titration curves on a mg/kg basis.
# The video images of Example 3 are analyzed off-line by first converting the digital AVI files into digital image files followed by analysis using MetaMorph software (Universal Imaging Co.) on a Dell Optiplex GX-1. Calibration of the software is done using a micrometer slide and measurements are defined in micrometers/pixel. […]
# mesenteric arterioles = assay: Intravital microscopy of mesenteric arterioles; assay type: in vivo, C57-BL mice; details: topical
# Protocol: Animals as described in Example 1 are prepared for surgery as described in Example 1. The animal is supinated on the surgery board so that the ventral portion of the animal faces the observation window. Upon irrigation with warmed physiological saline, a midline incision is made through the linea alba. A loop of small intestine from the lower duodenal segment is extracted and pinned around the observation window, with the pins passing through the proximal mesentery and not through the intestine proper.
# as §1, with “processing. […]” for “processing.”
# as §2, with “Topical treatment is by directly applying a vehicle solution (1:1:18 stepantex:ethanol:saline) or a drug plus vehicle solution. Systemic treatments in the whole animal are administered through the femoral vein catheter.” left out
# The video images of Example 3 are analyzed off-line by first converting the digital AVI files into digital image files followed by analysis using MetaMorph software (Universal Imaging Co.) on a Dell Optiplex GX-1. […]
# Data analysis is carried out using GraphPad, Prism software. […] Time course curves are fit using non-linear regression from which the rate of vessel constriction or dilation is calculated. […]
# cannabinoid receptors = details: cited from earlier work; for effect on blood pressure, intra-arterially administered (Adams): intra-arterial; for effect on blood pressure, intravenously administered (Adams): intravenous
# [2] = rats subsequently bled; doubled from about 30 minutes; cited from earlier work
# [3] = systemically administered, 2 mg/kg NS-398
structure (smiles),measurement,setting,value
O=C(O)Cc1ccccc1Nc1c(Cl)cccc1Cl [diclofenac],changes in blood pressure or renal function (Dilger),[1],not associated with significant changes in blood pressure or renal function
"CCCCCc1cc(O)c2c(c1)OC(C)(C)[C@@H]1CC=C(C)C[C@@H]21 [THC, Δ^8-tetrahydrocannabinol]",time post-administration of return to baseline diameter (FIG. 3B),"cremaster arterioles; systemic, 12 mg/kg THC alone",about 30 seconds
same,initial mild constriction of arterioles (FIG. 3B),"cremaster arterioles; systemic, initial 100 seconds",about 15%
same,response of cremaster arterioles to topical application (FIG. 3A),cremaster arterioles; topical,mirrors that of the response to systemic administration of THC
same,duration of initial brief constriction (FIG. 4),mesenteric arterioles,less than 5 seconds
same,response of mesenteric arterioles (FIG. 4),mesenteric arterioles,biphasic response
same,time post administration of return to baseline (FIG. 4),mesenteric arterioles,about 100 seconds
same,"effect on blood pressure, intra-arterially administered (Adams)",cannabinoid receptors,produced an increase in blood pressure indicative of vasoconstriction
same,"effect on blood pressure, intravenously administered (Adams)",cannabinoid receptors,transient increase in blood pressure that lasted only about one minute and that was followed by a more prolonged hypotensive response
same,"effect on blood pressure, intravenously administered (Adams)",cannabinoid receptors; listed as Δ^8-tetrahydrocannabinol,caused decreases in blood pressure
same,survival time (Wagner),[2],~60 min
CCCCCCC(C)(C)c1cc(O)c2c(c1)OC(C)(C)[C@@H]1CC=C(CO)C[C@@H]21 [HU-210],survival time (Wagner),[2],~60 min
CCCCCc1cc(O)c2c(c1)OC(C)(C)[C@@H]1CCC(C)=C[C@@H]21 [Δ^9-tetrahydrocannabinol],"effect on blood pressure, intra-arterially administered (Adams)",cannabinoid receptors,produced an increase in blood pressure indicative of vasoconstriction
same,"effect on blood pressure, intravenously administered (Adams)",cannabinoid receptors,caused decreases in blood pressure
"CCCCC/C=C\C/C=C\C/C=C\C/C=C\CCCC(=O)NCCO [ANA, arachidonyl ethanolamide]",change in cremaster arteriolar diameter (FIG. 5B),"cremaster arterioles; systemically administered, by about 200 seconds post-administration",causes a dilatation of cremaster arterioles
same,change in cremaster arteriolar diameter (FIG. 5A),"cremaster arterioles; topically administered, by about 200 seconds post-administration",causes a dilatation of cremaster arterioles
same,"effect on blood pressure (Kunos, U.S. Pat. No. 5,939,429)",cannabinoid receptors; in vivo,causes hypotension
Cc1ccc(-c2cc(C(F)(F)F)nn2-c2ccc(S(N)(=O)=O)cc2)cc1 [celecoxib],effect on blood pressure (Johnson),"[1]; patients, administered for six weeks",inconclusive
same,changes in blood pressure or renal function (Dilger),[1],not associated with significant changes in blood pressure or renal function
Nc1ncnc2c1ncn2[C@@H]1O[C@H](CO)[C@@H](O)[C@H]1O [adenosine],change in arteriole diameter (FIG. 1B),"cremaster arterioles; topical administration of adenosine, cremaster arteriole",Dilation of the arteriole
CS(=O)(=O)c1ccc(C2=C(c3ccccc3)C(=O)OC2)cc1 [rofecoxib],effect on blood pressure (Johnson),[1]; in vivo,found to elevate blood pressure
"CS(=O)(=O)Nc1ccc([N+](=O)[O-])cc1OC1CCCCC1 [NS-398, N-(2-cyclohexyloxy-4-nitrophenyl) methane sulphonamide]",initial increase in arteriolar diameter (FIG. 2),cremaster arterioles; [3],~8%
same,time to return to baseline diameter (FIG. 2),cremaster arterioles; [3],≤ 3 min
